Laboratory results: patent publication US4499089A, “2-Alkylthio-1-aminoalkyl-2-pyrroline-3-carbonitriles, compositions and use” (Warner-Lambert Company, priority 1983, dated 1985)
Counter-ions that a name gives are not always drawn. Like-named read-outs stand apart in the source and are kept apart here.

What was measured:
[1] = system: male mice (NMRI); assay: Acute toxicity in mice, seven day values; assay type: in vivo; conditions: intragastrally, 10080 min
Description: (§1) Investigation of the Acute Toxicity Method:
(§2) The determination of the acute toxicity was carried out on male mice (NMRI) with a body weight of 18 to 23 g. All experimental animals were fasted for 20 hours before commencement of the investigation. Water was available ad libitum. Four animals belonged to each dosage group. The dosage sequence was logarithmic. The test substances were administered either in the form of aqueous solutions or as suspensions in 0.8% Methocel. The administered volumes amounted, in the case of subcutaneous administration, to 10 ml/kg body weight, in the case of intragastral administration to 20 ml/kg body weight.

[2] = system: thrombocyte aggregation (platelet-rich plasma); assay: Collagen-induced thrombocyte aggregation in vitro (rats); assay type: cell-based, rat; conditions: for IC50: rat PRP, collagen-induced, 3 min incubation, end concentration lowering amplitude by 50%, read-out: C50-value (arith. M. + S.D.)
Description: Collagen-Induced Thrombocyte Aggregation In Vitro (Rats) Method: The test was carried out according to the method of BORN (Nature, 194, 927-929, 1962). As blood donors, there served male Sprague-Dawley SIV 50 rats with a body weight of 200 g. The blood sampling took place, under ether narcosis, from the retroorbital venous complex. Nine parts of blood were mixed with one part of 3.8% w/v tri-Na-citrate solution. After low speed centrifuging of the mixture at room temperature, the platelet-rich plasma (PRP, corresponding to erythrocyte-free supernatant) was removed and adjusted to a standard concentration of […]. As measurement instrument, there served an universal aggregometer (Braun, Melsungen), coupled with an Eppendorf photome[…] (Netheler and Hinz, Hamburg). In the investigation, 700 μl amounts of PRP were equilibrated in the aggregometer for five minutes at 37° C. and then mixed with 58 μl of the test substance solution or of a 0.9% NaCl solution (corresponding to the blank). After an incubation time of three minutes, the addition of 35 μl collagen suspension (collagen reagent HORM®, Hormon Chemie, Munchen) initiated the aggregation. A compensation recorder registered, in the following 15 minutes, the change of the transmission. The largest change of the transmission occurring in the period of time was called the amplitude (Amp) of the aggregation curve. Aggregation-inhibiting substances bring about a reduction of this amplitude; the inhibitory action (E) of a substance is calculated according to the following formula: E=[(Amp)blank -[…] ]×100(%) Dosage-action curves are produced on the basis of which their C50 values could be calculated. The C50 value gives the end concentration of a substance in the test system which leads to a lowering of the amplitude by 50%.

[3] = system: carrageenin edema of the rat (paw edema); assay: Antiphlogistic action on carrageenin edema of rats; assay type: in vivo; conditions: 3 h after carrageenin
Description: Investigation of the Antiphlogistic Action on Carrageenin Edema of Rats Method: Experimental animals were male rats (SIV 50), fasted for 20 hours, with a body weight of 110-160 g. Water was available ad libitum. After determination of the initial value of the paw volume of the right hind extremity, the test substances were administered intragastrally as suspension in 0.8% Methocel. Ten animals were used per dosage. The volume of administration amounted to 20 ml/kg body weight. The paw volume was measured plethysmometrically. Sixty minutes after intragastral administration of the test substances, 0.1 ml of a 1% carrageenin solution was injected subplanatary into the right hind paw. One and three hours after injection of the carrageenin, the paw volume of the oedematous paw was measured. The increase of the paw volume of the substance-treated animals after three hours was compared with that in the case of the control animals and the inhibition of the paw edema by the test substance was calculated as a percentage thereof.

[4] = system: yeast fever of the rat; assay: Antipyretic action on yeast fever of the rat; assay type: in vivo; conditions: 12% yeast 20 ml/kg SC, rectal
Description: Investigation of the Antipyretic Action on Yeast Fever of the Rat Method: Experimental animals were male rats (SIV 50), fasted for 20 hours, with a body weight of 115-165 g. For the production of an elevated body temperature, the animals received, 18 hours before administration of the test substances, 20 ml/kg body of a 12% dry yeast suspension subcutaneously in two to three depots. A control group received the corresponding volume of physiological NaCl solution injected subcutaneously. Ten animals were used per dosage. After three preliminary measurementds of the body temperature on the experimental day in 30-minute intervals, the test substance was administered intragastrally to the animals treated with yeast. The volume of administration amounted to 20 ml/kg body weight. A second control group treated with yeast, as well as the control group treated the previous day with physiological NaCl solution, received the corresponding vehicle instead of test substance. The body temperature of the experimental animals was measured rectally by means of thermocouple sensor 30, 60 minutes and then, in each case, hourly up to a total of five hours after substance administration.

[5] = system: stomach ulcer of the rat induced by indomethacin; assay: Ulcer-protective action on stomach ulcer of the rat induced by indomethacin; assay type: in vivo; conditions: for Ulcer Inhibition in %: indomethacin 40 mg/kg
Description: Investigation of the Ulcer-Protective Action on Stomach Ulcer of the Rat Induced by Indomethacin. Method: Experimental animals were male rats (SIV 50), fasted for 20 hours, with a body weight of 150-200 g. Water was available ad libitum. 40 mg/kg indomethacin and the substance to be tested, as suspension in 0.8% Methocel, were simultaneously administered to the animals intragastrally. The control animals only received the corresponding dosage of indomethacin. Ten animals were used per experimental group. The administration volume amount to 10 ml/kg body weight. The animals were sacrificed five hours after administration. After removal of the stomachs and opening of the curvatura major, these were investigated with a stereo magnifying glass for the presence of ulcers. The assessment of the ulcers took place according to a point scheme proposed by M. Chaumontet et al. (Arzneim.-Forsch., 28, 2119, 1978). The ulcer index was calculated herefrom. The ulcer index of the animals treated with indomethacin and test substance was compared with that of the control animals only treated with indomethacin and the ulcer inhibition calculated therefrom in percent.

[6] = Acute toxicity in mice, seven day values; assay type: in vivo; conditions: mouse, in vivo, po, male NMRI mice, intragastrally
Description: as §1, §2

Compound: 1-(2-dimethylaminopropyl)-2-methylthio-5-oxo-4,4-diphenyl-2-pyrroline-3-carbonitrile [Compound 6]
- LD50 [1]: 1200 mg/kg
- IC50 [2]: 190 ± 40 µM
- Inhibition of Paw Edema in % ([3]; 125 mg/kg intragastrally): 36%
- body temperature, 30 ([4]; 30 minutes after 250 mg/kg IG): 37 °C
- body temperature, 60 ([4]; 60 minutes after 250 mg/kg IG): 36 °C
- body temperature, 120 ([4]; 120 minutes after 250 mg/kg IG): 35.2 °C
- body temperature, 180 ([4]; 180 minutes after 250 mg/kg IG): 34.7 °C
- body temperature, 240 ([4]; 240 minutes after 250 mg/kg IG): 35.1 °C
- body temperature, 300 ([4]; 300 minutes after 250 mg/kg IG): 35.6 °C

Compound: CCCSC1=C(C#N)C(c2ccccc2)(c2ccccc2)C(=O)N1CCN(CC)CC [Compound 9, 1-(2-Diethylaminoethyl)-5-oxo-4,4-diphenyl-2-propylthio-2-pyrroline-3-carbonitrile]
- Ulcer Inhibition in % ([5]; 250 mg/kg intragastrally): 29%

Compound: CSC1=C(C#N)C(c2ccccc2)(c2ccccc2)C(=O)N1CCCN1CCCCC1 [Compound 12, 2-methylthio-5-oxo-4,4-diphenyl-1-(3-piperidinopropyl)-2-pyrroline-3-carbonitrile]
- LD50 at 168 h [6]: > 1600 mg/kg
- IC50 ([2]; 0.05 h): 150 ± 20 µM

Compound: CCSC1=C(C#N)C(c2ccccc2)(c2ccccc2)C(=O)N1CCCN1CCCCC1.O=C(O)C(=O)O [Compound 15, 2-ethylthio-5-oxo-4,4-diphenyl-1-(3-piperidinopropyl)-2-pyrroline-3-carbonitrile oxalate]
- LD50 at 168 h [6]: 700 mg/kg
- Inhibition of Paw Edema in % ([3]; 150 mg/kg intragastrally): 39%
- body temperature, 60 ([4]; 60 minutes after 150 mg/kg IG): 36.6 °C
- body temperature, 120 ([4]; 120 minutes after 150 mg/kg IG): 35.8 °C
- body temperature, 180 ([4]; 180 minutes after 150 mg/kg IG): 35.9 °C
- body temperature, 240 ([4]; 240 minutes after 150 mg/kg IG): 36.4 °C
- body temperature, 300 ([4]; 300 minutes after 150 mg/kg IG): 37 °C
- Ulcer Inhibition in % ([5]; 150 mg/kg intragastrally): 29%

Compound: CSC1=C(C#N)C(c2ccc(N(C)C)cc2)(c2cccnc2)C(=O)N1CCCN(C)C (centres unmarked) [Compound 21, 4-(4-Dimethylaminophenyl)-1-(3-dimethylaminopropyl)-2-methylthio-5-oxo-4-(3-pyridyl)-2-pyrroline-3-carbonitrile]
- LD50 at 168 h [6]: 1200 mg/kg
- IC50 ([2]; 0.05 h): 160 ± 20 µM

Compound: CCSC1=C(C#N)C(c2ccccc2)(c2ccccc2)C(=O)N1CCCN(CC)CC [Compound 16, 1-(3-diethylaminopropyl)-2-ethylthio-5-oxo-4,4-diphenyl-2-pyrroline-3-carbonitrile hydrochloride]
- IC50 ([2]; 0.05 h): 140 ± 60 µM

Compound: CCSC1=C(C#N)C(c2ccccc2)(c2ccccc2)C(=O)N1CCN1CCCCC1.Cl [Compound 1, 2-Ethylthio-5-oxo-4,4-diphenyl-1-(2-piperidinoethyl)-2-pyrroline-3-carbonitrile hydrochloride]
- LD50 at 168 h [6]: 1600 mg/kg
- Inhibition of Paw Edema in % ([3]; 125 mg/kg intragastrally): 36%

Compound: CCSC1=C(C#N)C(c2ccccc2)(c2ccccc2)C(=O)N1CCCN1CCOCC1 [Compound 5, 2-ethylthio-1-(3-morpholinopropyl)-5-oxo-4,4-diphenyl-2-pyrroline-3-carbonitrile]
- LD50 at 168 h [6]: > 1600 mg/kg
- Inhibition of Paw Edema in % ([3]; 37.5 mg/kg intragastrally): 22%
- Inhibition of Paw Edema in % ([3]; 75 mg/kg intragastrally): 45%
- Ulcer Inhibition in % ([5]; 100 mg/kg intragastrally): 52%
- ulcer-protective action ([5]; in words): the most effective representative

Compound: CCSC1=C(C#N)C(c2ccccc2)(c2ccccc2)C(=O)N1CCCN(C)C [Compound 3, 2-ethylthio-1-(3-dimethylaminopropyl)-5-oxo-4,4-diphenyl-2-pyrroline-3-carbonitrile hydrochloride]
- IC50 ([2]; 0.05 h): 150 ± 40 µM

Compound: CC(C)SC1=C(C#N)C(c2ccccc2)(c2ccccc2)C(=O)N1CCCN(C)C [Compound 8, 2-Isopropylthio-1-(3-dimethylaminopropyl)-5-oxo-4,4-diphenyl-2-pyrroline-3-carbonitrile]
- LD50 at 168 h [6]: 1400 mg/kg
- IC50 ([2]; 0.05 h): 270 ± 50 µM

Compound: CCSC1=C(C#N)C(c2ccccc2)(c2ccccc2)C(=O)N1CCCN [Compound 17a, 1-(3-Aminopropyl)-2-ethylthio-5-oxo-4,4-diphenyl-2-pyrroline-3-carbonitrilehydrochloride]
- IC50 ([2]; 0.05 h): 60 µM
- aggregation-inhibiting properties ([2]; in words): the most effective representative
